# Where two headings read alike, the source gives them in different places.
# What was measured:
# [1] = system: multidrug resistant Haemonchus contortus isolate UGA2004 L3 stage larvae; details: for inhibition of larval motility compared with verapamil: with IVR, 10 or 20 uM RTI-79, 20 uM RTI-176, 10 uM verapamil
# Method: Each well contained a 300 uL solution containing approximately 75 L3 stage larvae, IVR, and pgp inhibitor or control. IVR was provided in serially diluted concentrations of 50, 25, 12.5, 6.25, 3.125, 1.56, 0.78 or 0.39 uM, to permit evaluation of the dose response to IVR in the presence of the pgp inhibitors. Inhibition of larval motility was determined by failure of the incubated larvea to move when stimulated by light exposure after incubation.
# [2] = Time to maximal plasma concentration / tissue absorption after administration
# From the text: In certain embodiments, the rifamycin, rifamycin derivative, rifampicin, rifampicin derivative, or pharmaceutically acceptable salt, hydrate, or prodrug thereof, or combination thereof, can be administered in a method that matches the pharmokinetics of the composition to that of the antiparasitic drug also administered to the recipient.
# P-gp = details: previously demonstrated; cited from earlier work
# P. Falciparum [3] = test: In vitro inhibition of P. falciparum variants, DAPI fluorescence imaging assay in erythrocyte cultures; format: cell-based
# From the text: Sensitivity of the P. Falciparum variants to (i.e. inhibition of the parasites by) RTI-79chloroquine, or rifamycin was quantitated via assay as previously described. Duffy, S. and V. M. Avery, Development and optimization of a novel 384-well anti-malarial imaging assay validated for high-throughput screening. Am J Trop Med Hyg, 2012. 86(1): p. 84-92. Inhibition of P. Falciparum with various concentrations of the inhibitors was quantified by measuring DAPI fluorescence of parasite DNA in erythrocyte cultures.
# Decreased DAPI staining quantified as relative light units (“RLU”), is observed with parasite inhibition in the assays.
# [4] = system: UGA2004 H. contortus isolate eggs; test: Larval development assay, sensitization to thiabendazole; design: species or system Haemonchus contortus
# Method: TBZ was provided in a range of concentrations to permit evaluation of the dose response to TBZ in the presence of the pgp inhibitors. After incubation of the eggs for seven days, the number of stage 3 (“L3”) larvae that developed with each treatment was counted.
# P. Falciparum [5] = details: read-out: previously-reported IC50 of chloroquine, cited from earlier work
# P. Falciparum [6] = test: Chloroquine sensitization in chloroquine-resistant P. Falciparum (survival of variants); format: cell-based
# From the text: Quinine and quinine derivatives including chloroquine inhibit the Plasmodium parasites, including P. Falciparum, by accumulating in food vacuoles and causing accumulation of cytotoxic heme, thereby poisoning the parasite.
# [7] = cited from earlier work
compound,measurement,setting,value
"4-deoxy-3,4[2-spiro-[1-(isobutyloxycarbonyl)-piperidin-4-yl]]-(1H)-imidazo-(2,5-dihydro)rifamycin S [RTI-79]",inhibition of larval motility compared with verapamil,[1],more potent inhibition of larval motility
same,time to maximal plasma concentration,[2],≤ 3 h
same,drug efflux from cells,P-gp,prevent drug efflux from cells
same,"inhibition of strains (DAPI staining, RLU)","P. Falciparum [3]; all strains, FIGS. 1A-1C",Dose-dependent inhibition of all strains
same,IC50,"P. Falciparum [3]; all variants (3D7, Dd2, K1; chloroquine-sensitive and -resistant), read-out: observed IC50",~625 nM
"11-deoxy-11-amino-4-deoxy-3,4[2-spiro-[1-(isobutyloxycarbonyl)-piperidin-4-yl]]-(1H)-imidazo-(2,5-dihydro)rifamycin S [RTI-176]",shift of IVR dose response curve,"[1]; relative to the 1% DMSO control, FIG. 3A",shifted the IVR dose response curve to the left
same,inhibition of larval motility compared with verapamil,[1],more potent inhibition of larval motility
same,shift of TBZ dose response curve,"[4]; relative to both verapamil and the 1% DMSO control, FIG. 3B",shifted the TBZ dose response curve to the left
same,shift of the IC50 of TBZ,"[4]; seven days incubation, relative to control and verapamil",3.79 fold
CCN(CC)CCCC(C)Nc1ccnc2cc(Cl)ccc12 (centres unmarked) [chloroquine],IC50,P. Falciparum [5]; chloroquine-resistant Dd2 variant,100 nM
same,IC50,P. Falciparum [5]; chloroquine-resistant K1 variant,255 nM
same,IC50,P. Falciparum [5]; chloroquine-sensitive 3D7 variant,~10 nM
same,parasite survival,"P. Falciparum [6]; 3D7 variant, chloroquine at or greater than IC50",death of the parasite
same,parasite survival,"P. Falciparum [6]; chloroquine-resistant variants, chloroquine alone at or below the 3D7 IC50",survive
CO[C@H]1/C=C/O[C@@]2(C)Oc3c(C)c(O)c4c(c3C2=O)C2=NC3(CCN(CC(C)C)CC3)NC2=C(NC(=O)/C(C)=C\C=C\[C@H](C)[C@H](O)[C@@H](C)[C@@H](O)[C@@H](C)[C@H](OC(C)=O)[C@@H]1C)C4=O [rifabutin],initial half-life of plasma elimination,[7]; biphasic elimination,approximately 4 hours
same,mean (±SD) peak plasma concentration (Cmax),"[7]; in vivo, po, 300 mg",375 (±267) ng/mL
same,"peak plasma concentration (Cmax), range","[7]; in vivo, po, 300 mg",141 to 1033 ng/mL
